Test results reported in US9839642B2, “Beta-tetrazolyl-propionic acids as metallo-beta-lactamase inhibitors” (priority 2014, dated 2017).
pIC50: −log10 of the molar value. Like-named read-outs stand apart in the source and are kept apart here.

How the values were obtained:
[1] = system: Escherichia coli expressing NDM-1 (CLB30016); experiment: Antibiotic potentiation activity: synergistic concentration (MITC95) with imipenem, growth by OD600; format: cell-based
Experimental: (§1) Antibiotic Potentiation Activity: Determination of Synergistic Concentration
(§2) The bacterial strains tested included the clinical strains Escherichia coli expressing NDM-1 (CLB30005, CLB30016), Serratia marcescens expressing IMP-1 (CL5741), and Klebsiella pneumoniae expressing VIM-1 (IHMA599644). Inhibitor activity was measured in the presence and absence of imipenem or ceftazidime in a 384-well microplate.
(§3) The clinical strains CLB30016, CL5741, and IHMA599644 were grown on trypticase soy agar containing 5% sheep's blood. The clinical strain CLB30005 was grown on Mueller Hinton broth agar containing 8 μg/ml imipenem. The bacteria on agar plates were incubated overnight at 35° C. with ambient humidity (achieved from an open pan of water inside the incubator). The following day, individual colonies from each clinical strain were picked and resuspended in 5 ml saline to attain an OD600 of 0.14, 0.11, 0.15 and 0.13, for CLB30005, CLB30016, CL5741 and IHMA599644, respectively. These were further diluted 1:100 into 1.1×CAMHB and used to inoculate the test wells as described below.
(§4) Imipenem in 10 mM 3-(N-morpholino)propanesulfonic acid (MOPS, pH 7) was stored in single use aliquots at −80° C. Test inhibitors were dissolved in DMSO and diluted 1:50 in the assay, resulting in a final concentration range of 200 μM to 0.195 μM. On the day of the assay, 4 μl of antibiotic was added to 45 μl of bacteria followed by 1 μl of test compound and mixed by pipetting and with an orbital shaker. The concentration of antibiotic used in the assay was 1 μg/ml or 4 μg/ml. Microplates were covered and incubated at 35° C. for 22 hours to 24 hours. At the end of the incubation, absorbance was determined using a spectrophotometer. The synergistic concentration of MBLI was determined by identifying the lowest concentration of test compound in the presence of a given concentration of antibiotic that was required to inhibit 95% of the growth of the bacteria.
(§5) Representative compounds of the present invention display a synergistic effect. For example, representative compounds of EXAMPLES 1-456 were determined to restore susceptibility to imipenem at concentrations of 200 μM or less.

[2] = system: Serratia marcescens expressing IMP-1 (CL5741); experiment: as above; format: cell-based
Experimental: as §1, §2, §3, §4, §5

[3] = system: Klebsiella pneumoniae expressing VIM-1 (IHMA599644); experiment: as above; format: cell-based
Experimental: as §1, §2, §3, §4, §5

NDM-1 = NDM-1 (Klebsiella pneumoniae, UniProt C7C422); experiment: Enzyme activity: determination of IC50, fluorescence assay with CCF2-FA substrate; format: biochemical; conditions: CCF2-FA 1.25 μM, 2 hours at 25° C., read-out: NDM1 IC50
Experimental: (§6) Enzyme Activity: Determination of IC50
(§7) The Class B enzyme activities were measured in the presence of a compound of the EXAMPLES as a test inhibitor in a fluorescence assay against a commercially available substrate consisting of a cephalosporin core linking 7-hydroxycoumarin to fluorescein (CCF2-FA; Life Technologies, Grand Island, N.Y.). The enzyme (NDM-1, IMP-1 or VIM-1) and the substrate were diluted in 100 mM KH2PO4 buffer (pH 7) containing 0.005% Tween-20 and 10 μM ZnSO4. In the assay, the final concentration of enzyme was 1 pM, 2 pM and 30 pM for NDM-1, IMP-1 and VIM-1, respectively, and the final concentration of CCF2-FA was 1.25 μM. The test inhibitor was dissolved in DMSO and diluted 1:50 in the assay, resulting in a final concentration range of 20 μM to 0.00063 μM. In a 384-well microplate, the test inhibitor was incubated with the metallo-β-lactamase enzyme and the substrate for 2 hours at 25° C. Fluorescence at 460 nm following excitation at 405 nm was measured. The IC50 value was determined from semi-logarithmic plots of enzyme inhibition versus inhibitor concentration, with a curve generated using a 4-parameter fit.

IMP-1 = IMP-1 (Serratia marcescens, UniProt P52699); experiment: as above; format: biochemical; conditions: CCF2-FA 1.25 μM, 2 hours at 25° C., read-out: IMP1 IC50
Experimental: as §6, §7

VIM-1 = VIM-1 (Pseudomonas aeruginosa, UniProt A0A0F7KYQ8); experiment: as above; format: biochemical; conditions: CCF2-FA 1.25 μM, 2 hours at 25° C., read-out: VIM1 IC50
Experimental: as §6, §7

[4] = E. coli CLB30016 (NDM-1), 95% inhibition of growth
[5] = S. marcescens CL5741 (IMP-1), 95% inhibition of growth
[6] = K. pneumoniae IHMA599644 (VIM-1), 95% inhibition of growth
[7] = 95% inhibition of bacterial growth, strain CLB30016
[8] = 95% inhibition of bacterial growth, strain CL5741
[9] = 95% inhibition of bacterial growth, strain IHMA599644

Sequence of IMP-1 (P52699 19-246, looked up, species assumed): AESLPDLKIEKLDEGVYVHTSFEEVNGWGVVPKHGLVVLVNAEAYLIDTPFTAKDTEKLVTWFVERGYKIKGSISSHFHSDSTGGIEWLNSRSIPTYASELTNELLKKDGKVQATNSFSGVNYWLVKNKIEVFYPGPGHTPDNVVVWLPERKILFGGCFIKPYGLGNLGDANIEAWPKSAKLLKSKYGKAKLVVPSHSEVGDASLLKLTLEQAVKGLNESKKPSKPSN
Sequence of NDM-1 (C7C422 29-270, looked up, species assumed): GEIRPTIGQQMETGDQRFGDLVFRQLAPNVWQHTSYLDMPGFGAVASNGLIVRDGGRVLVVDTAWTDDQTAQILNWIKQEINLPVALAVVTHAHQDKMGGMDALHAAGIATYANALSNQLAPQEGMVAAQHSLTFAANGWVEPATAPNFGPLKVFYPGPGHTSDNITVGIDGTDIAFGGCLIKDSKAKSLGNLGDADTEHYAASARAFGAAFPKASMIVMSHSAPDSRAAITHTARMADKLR

SMILES	NDM1 EC30016 MITC95 [1, 4] [µM]	IMP1 SM5741 MITC95 [2, 5] [µM]	VIM1 KP599644 MITC95 [3, 6] [µM]	pIC50 (NDM-1; NDM-1 enzyme 1 pM)	pIC50 (IMP-1; IMP-1 enzyme 2 pM)	pIC50 (VIM-1; VIM-1 enzyme 30 pM)	NDM1 EC30016 MITC95 [1, 7] [µM]	IMP1 SM5741 MITC95 [2, 8] [µM]	VIM1 KP599644 MITC95 [3, 9] [µM]	pIC50 (NDM-1; enzyme 1 pM)	pIC50 (IMP-1; enzyme 2 pM)	pIC50 (VIM-1; enzyme 30 pM)
CCC[C@H](C(=O)O)[C@H](Cc1cccc(N2CCN(C(C)=O)CC2)c1)c1nn[nH]n1 [Example 363, (2S)-2-[(1S)-2-[3-(4-acetylpiperazin-1-yl)phenyl]-1-(2H-tetrazol-5-yl)ethyl]pentanoic acid]	100	25	100	6.82	6.09	7.70	–	–	–	–	–	–
CC(C)[C@H](C(=O)O)[C@H](Cc1ccc(-c2cnc(NCCO)nc2)cc1)c1nnn[nH]1 [Example 77, (2S,3S)-4-(4-(2-((2-hydroxyethyl)amino)pyrimidin-5-yl)phenyl)-2-isopropyl-3-(1H-tetrazol-5-yl)butanoic acid]	–	–	–	–	–	–	6.2	4.7	50	8.21	7.00	8.24
CC(C)C[C@H](C(=O)O)[C@H](Cc1ccc(-c2ccc3c(c2)OCC(=O)N3)nc1)c1nn[nH]n1 [Example 180, (2S)-4-methyl-2-[(1S)-2-[6-(3-oxo-3,4-dihydro-2H-1,4-benzoxazin-7-yl)pyridin-3-yl]-1-(2H-tetrazol-5-yl)ethyl]pentanoic acid]	–	–	–	–	–	–	25	3.1	50	7.77	6.89	8.77
CCC[C@H](C(=O)O)[C@H](Cc1cccc(N2CCC[C@H](N)C2)c1)c1nn[nH]n1 [Example 366, (2S)-2-[(1S)-2-{3-[(3S)-3-aminopiperidin-1-yl]phenyl}-1-(2H-tetrazol-5-yl)ethyl]pentanoic acid]	50	150	25	6.06	5.07	7.89	–	–	–	–	–	–
CNC(=O)C1CCCN(c2ccc(C[C@H](c3nnn[nH]3)[C@H](CC(C)C)C(=O)O)cn2)C1 (stereo partly drawn) [Example 311, (2S)-4-methyl-2-[(1S)-2-{6-[3-(methylcarbamoyl)piperidin-1-yl]pyridin-3-yl}-1-(1H-tetrazol-5-yl)ethyl] pentanoic acid]	6.2	9.4	100	7.06	6.82	7.59	–	–	–	–	–	–
CCC[C@H](C(=O)O)[C@H](Cc1ccccc1Br)c1nnn[nH]1 [Example 26, (2S)-2-[(1S)-2-(2-bromophenyl)-1-(1H-tetrazol-5-yl)ethyl]pentanoic acid]	–	–	–	–	–	–	3.1	12.5	18.8	8.00	6.24	8.62
CC(C)[C@H](C(=O)O)[C@H](Cc1csc(C2=CCNC2)n1)c1nnn[nH]1 [Example 71, (2S,3S)-4-(2-(2,5-dihydro-1H-pyrrol-3-yl)thiazol-4-yl)-2-isopropyl-3-(1H-tetrazol-5-yl)butanoic acid]	–	–	–	–	–	–	12.5	>200	25	6.24	–	6.92
CC(C)C[C@H](C(=O)O)[C@H](Cc1ccc(Oc2ccc(CCN)cc2)nc1)c1nn[nH]n1 [Example 371, (2S)-2-[(1S)-2-{6-[4-(2-aminoethyl)phenoxy]pyridin-3-yl}-1-(2H-tetrazol-5-yl)ethyl]-4-methylpentanoic acid]	12.5	12.5	75	7.03	6.54	–	–	–	–	–	–	–
CCC[C@H](C(=O)O)[C@H](Cc1cnc(N2CCNCC2)s1)c1nnn[nH]1 [Example 120, (S)-2-((S)-2-(2-(piperazin-1-yl)thiazo1-5-yl)-1-(1H-tetrazol-5-yl)ethyl)pentanoic acid]	–	–	–	–	–	–	25	>200	37	5.92	–	8.07
CC(C)C[C@H](C(=O)O)[C@H](Cc1ccc(N2CC(N3CCNCC3)C2)nc1)c1nnn[nH]1 [Example 334, (2S)-4-methyl-2-[(1S)-2-[6-(3-piperazin-1-ylazetidin-1-yl)pyridin-3-yl]-1-(1H-tetrazol-5-yl)ethyl]pentanoic acid]	6.2	25	50	–	–	–	–	–	–	–	–	–
CC(C)(C)[C@H](C(=O)O)[C@H](Cc1ccc(NCCO)nc1)c1nnn[nH]1.O=C(O)C(F)(F)F [Example 428, 2,2,2-trifluoroacetate]	–	–	–	7.34	7.73	7.43	–	–	–	–	–	–
CC(C)C[C@H](C(=O)O)[C@H](Cc1ccc(Oc2ccccc2N2CCNCC2)nc1)c1nn[nH]n1 [Example 387, (2S)-4-methyl-2-[(1S)-2-[6-(2-piperazin-1-ylphenoxy)pyridin-3-yl]-1-(2H-tetrazol-5-yl)ethyl]pentanoic acid]	>200	>200	>200	6.06	5.62	–	–	–	–	–	–	–
CC(C)C[C@H](C(=O)O)[C@H](Cc1ccc(N2CC(N3CCNCC3)C2)nc1)c1nnn[nH]1 [Example 324, (2S)-4-methyl-2-[(1S)-2-[6-(3-piperazin-1-ylazetidin-1-yl)pyridin-3-yl]-1-(1H-tetrazol-5-yl)ethyl]pentanoic acid]	>200	>200	>200	–	–	–	–	–	–	–	–	–
CC(C)C[C@H](C(=O)O)[C@H](Cc1ccc(Oc2ccccc2N2CCNCC2)nc1)c1nn[nH]n1 [Example 372, (2S)-4-methyl-2-[(1S)-2-[6-(2-piperazin-1-ylphenoxy)pyridin-3-yl]-1-(2H-tetrazol-5-yl)ethyl]pentanoic acid]	38	75	>200	6.24	5.80	–	–	–	–	–	–	–
CC(C)C[C@H](C(=O)O)[C@H](Cc1ccc(Oc2ccc(CCN)cc2)nc1)c1nn[nH]n1 [Example 392, (2S)-2-[(1S)-2-{6-[4-(2-aminoethyl)phenoxy]pyridin-3-yl}-1-(2H-tetrazol-5-yl)ethyl]-4-methylpentanoic acid]	6.2	25	75	7.31	6.57	–	–	–	–	–	–	–
CC(C)(C)[C@H](C(=O)O)[C@H](Cc1ccc(NCCO)nc1)c1nnn[nH]1.O=C(O)C(F)(F)F [Example 428]	0.7813	1.563	12.5	–	–	–	–	–	–	–	–	–
